# Patent US9603861B2, “Compositions and methods for treating hyperproliferative epidermal diseases” (DERMIPSOR LTD., priority 2005, dated 2017)
# Columns and labels:
# [1] = system: human primary keratinocytes; assay: Proliferation assay (MTT method), human primary keratinocytes; assay type: cell-based; details: NA in pharmacological concentrations, dose dependent
# Procedure: The antiproliferative activity of calcipotriol and nicotinamide was tested in two model systems: the first a spontaneously immortalized human keratinocyte, which is referred to herein as “HaCat cells” or “HaCat keratinocytes”, and serves as a model for highly proliferative epidermis, such as, but not limited to, psoriatic epidermis (Okenfels et al, 1998), and as a model for effects of external modulators of epidermal differentiation (Paramio, et al., 1997). The second system includes rapidly proliferating human keratinocytes, which are referred to herein as “cultured human epidermal keratinocytes”, and serves as a model for detecting antiproliferative agents in the treatment of psoriasis (Nikoloff, et al., 1988). Human Epidermal Keratinocytes (passages 3-6), obtained from normal face-lift surgery, were cultivated in serum-free KGM®-2 BulletKit® (Clonetics, USA) medium with low calcium for accelerated proliferation of the keratinocytes. The viability and/or proliferation of HaCat cells and Cultured Human Epidermal Keratinocytes, following treatment with various concentrations of calcipotriol, nicotinamide (NA) or a combination thereof was determined by the MTT assay, according manufacturer in 96-well microtiter plates.
# [2] = system: HaCat cells; assay: Proliferation assay (MTT method), HaCat cells; assay type: cell-based, human
# Procedure: The antiproliferative activity of calcipotriol and nicotinamide was tested in two model systems: the first a spontaneously immortalized human keratinocyte, which is referred to herein as “HaCat cells” or “HaCat keratinocytes”, and serves as a model for highly proliferative epidermis, such as, but not limited to, psoriatic epidermis (Okenfels et al, 1998), and as a model for effects of external modulators of epidermal differentiation (Paramio, et al., 1997). The second system includes rapidly proliferating human keratinocytes, which are referred to herein as “cultured human epidermal keratinocytes”, and serves as a model for detecting antiproliferative agents in the treatment of psoriasis (Nikoloff, et al., 1988). These models have been used, according to the present invention, to test the antiproliferative efficacy of agents described herein. […] The viability and/or proliferation of HaCat cells and Cultured Human Epidermal Keratinocytes, following treatment with various concentrations of calcipotriol, nicotinamide (NA) or a combination thereof was determined by the MTT assay, according manufacturer in 96-well microtiter plates.
# [3] = system: keratin 10 (K10); assay: Indirect immunofluorescence, keratin 10 expression; assay type: cell-based, human; details: 72 hours
# Procedure: (§1) Effects of NA and or calcipotriol on early (keratin k10 expression) and late (involucrin expression) differentiation processes in HaCat cells were estimated by indirect immunofluorescence.
# In brief, 2×10^4 cells/ml were seeded on glass coverslips into Petri dishes with 0, 5, 10 and 20 mM NA or calcipotriol. After 72 hours of incubation, cells on the glass coverslips were washed with PBS, fixed by ice-cold mixture of methanol:acetone (1:1) and incubated at −20° C. for 10 minutes. Fixed cells were washed in PBS and incubated with blocking buffer (1% BSA in PBS) for 10 minutes, to minimize non-specific absorption of the primary antibodies to the coverslips. Thereafter, the cells were incubated for 1 hour with primary monoclonal antibodies (Keratin 10 expression was detected by antihuman mouse monoclonal antibody, at 1/50 final dilution; Involucrin expression was detected by antihuman involucrin mouse monoclonal antibody at 1/100 final dilution), at 37° C. hour in a humidified chamber. Exhaustive, PBS-washed cells were incubated with fluorophor conjugated goat anti-mouse IgG, at 1/50 final dilution, for 30 minutes at room temperature. The slides were viewed under a Zeiss microscope (Axioskop-2) equipped with epifluorescence optics and the appropriate filters to avoid cross-channel contamination. […] On each slide, at least 500-1000 cells were scored.
# [4] = system: HaCat keratinocytes; assay: Long-term NA treatment of HaCat keratinocytes, oxidative stress; assay type: cell-based, human; details: long-term treatment with NA
# Description: Other long-term cultures of cells with other agents are similarly obtained by cultivating HaCat cells, for a prolonged period of time, in medium supplemented with combinations of NA, vitamin D and derivatives thereof and vitamin A.
# [5] = system: HaCat cells; assay: Growth curve and mitotic activity; assay type: cell-based, human; details: 10 mM NA
# Procedure: Growth curve and mitotic activity: 2×10^4 cells per ml were seeded in 24-well tissue culture plates and incubated without or with 10 mM NA. The cells were detached by trypsinization at different times (48 h-168 h) following passage and counted using a haemocytometer in tetra-aliquots. For estimation of mitotic activity the cells were cultured on glass coverslips into Petri dishes. After 72 h incubation with or without 10 mM NA the cells were fixed with methanol, stained with Giemsa stain and analyzed by light microscopy. Frequency of mitotic cells at different stages of mitotic cycle (pro-, meta-, ana- and telophases) was calculated. At least 1000 cells were counted for each experiment.
# [6] = system: A431 cells; assay: Apoptosis in A431 cells; assay type: cell-based
# [7] = system: HaCat cells; assay: Apoptosis and necrosis by fluorescence microscopy; assay type: cell-based, human
# Procedure: Estimation of apoptosis and necrosis was analyzed using fluorescence microscopy as previously described (Harel et al, 2002). Briefly, HaCat cells were cultured on glass slides and exposed to various concentration of NA (5, 10, 20 and 50 mM). After 72 h the cells were stained with the DNA binding dyes Hoechst 33342 and propidium iodide. Viable cells were identified by intact nuclei and their blue fluorescence, necrotic cells by intact nuclei and red fluorescence, and cells in early or late phase of apoptosis, by fragmented nuclei and blue or red fluorescence. At least one thousand cells were counted for each treatment.
# [8] = system: A431; assay: Proliferation assay, A431 cells; assay type: cell-based; details: NA in pharmacological concentrations, dose dependent
# Procedure: (§2) Certain in vitro assays based on keratinocyte cell culture were performed to test NA and the combination of NA and calcipotriol. The experimental design has been described in PCT Patent Publication WO 01/51051, of some of the inventors of the present application.
# [9] = system: KM12; assay: Proliferation assay, KM12 cells; assay type: cell-based; details: NA in pharmacological concentrations, dose dependent
# [10] = system: benign and malignant epidermal cells; assay: Differentiation markers in benign and malignant epidermal cells; assay type: cell-based
# Procedure: as §2
# (§3) Cornified Envelope Formation: Late differentiation processes in HaCat cells treated with NA and or calcipotriol were measured by determining the cornified cell envelope formation, according to the procedures described in Sun and Green (1976) and PCT publication WO 01/51051.
# as §1
# [11] = system: PARP; assay: Immunoblot analysis of PARP expression; assay type: cell-based, human
# Procedure: Immunoblot analysis of PARP expression: immune complexes were detected by incubation with secondary anti-mouse alkaline phosphatase conjugated antibody AP124A (dilution 1:5000) followed by developing with BCIP/NBT color substrate.
# [12] = system: involucrin; assay: Indirect immunofluorescence, involucrin expression; assay type: cell-based, human
# Procedure: as §1
# In brief, 2×10^4 cells/ml were seeded on glass coverslips into Petri dishes with 0, 5, 10 and 20 mM NA or calcipotriol. After 72 hours of incubation, cells on the glass coverslips were washed with PBS, fixed by ice-cold mixture of methanol:acetone (1:1) and incubated at −20° C. for 10 minutes. Fixed cells were washed in PBS and incubated with blocking buffer (1% BSA in PBS) for 10 minutes, to minimize non-specific absorption of the primary antibodies to the coverslips. Thereafter, the cells were incubated for 1 hour with primary monoclonal antibodies (Keratin 10 expression was detected by antihuman mouse monoclonal antibody, at 1/50 final dilution; Involucrin expression was detected by antihuman involucrin mouse monoclonal antibody at 1/100 final dilution), at 37° C. hour in a humidified chamber. Exhaustive, PBS-washed cells were incubated with fluorophor conjugated goat anti-mouse IgG, at 1/50 final dilution, for 30 minutes at room temperature. The slides were viewed under a Zeiss microscope (Axioskop-2) equipped with epifluorescence optics and the appropriate filters to avoid cross-channel contamination. The level of keratin 10 and involucrin expression was estimated by counting the positive cells relative to the total cell number. On each slide, at least 500-1000 cells were scored.
# [13] = system: HaCat cells; assay: Cornified envelope formation; assay type: cell-based, human
# Procedure: as §3
# [14] = system: HaCat cells; assay: Cell cycle parameters by flow cytometry; assay type: cell-based, human; details: NA 72 h, dose dependent
# Procedure: Determination of apoptosis and cell cycle parameters was performed by flow cytometry. Cells were seeded in 25 cm2 tissue culture flasks and cultured for 48 h, and then they were exposed to 5, 10 and 20 mM NA for 72 h. Flow cytometry was performed on nuclei prepared with a detergent-trypsin method and stained with propidium iodide (Vindelov et al, 1983).
# [15] = Skin permeation, Franz diffusion cell; assay type: in vitro ADME, porcine; details: formulations CP and CPNA, 12 hours; QL 1.3 ng/mL
# Procedure: Three formulations were prepared. The first comprised Nicotinamide (NA, 2.1 mg/g), the second Calcipotriol (CP, 50 μg/g) and the third, a combination of Calcipotriol (50 μg/g) and Nicotinamide (2.1 mg/g)(CPNA).
# The Franz cell assembly and porcine ear skin are used for measuring permeation of drugs through the skin in vitro from various systems and dosage forms (Dick et al. 1992; Simon, et al. 2000; Touitou et al. 1998; Chien 1992). The experiments were carried out in vitro using the Franz diffusion cell assembly and full-thickness skin from porcine ear. The diffusion cells are made from an inert material and the assembly allows for good receiver-fluid mixture and temperature control.
# Porcine ear skin was excised from the outer part of the ear and separated from the underlying cartilage. The skin was stored frozen at −20° C. until use, always less than one week. […] A quantity of 100 mg test formulation was placed on 1.77 cm^2 skin in the donor compartment. […]
# The experiments were run non-occluded for 12 hours. […] The samples were analyzed for Nicotinamide and Calcipotriol concentrations by HPLC as further described. […]
# HPLC assays: The HPLC assays of nicotinamide and calcipotriol were carried as follows: Nicotinamide was analyzed in a Waters Alliance 2795 LC and Quattro Micro™ HPL chromotograph LC-MS system with Hypersil BDS C18, 3 μm, 150×2.1 mm (CN 28103-152130, batch #4796) column. […]
compound,measurement,setting,value
"NC(=O)c1cccnc1 [NA, Nicotinamide]",Proliferation of human primary keratinocytes,[1],significantly inhibited
same,rate of HaCat cell proliferation,"[2]; 0.5-5 mM NA, 72 h",did not change the rate of HaCat cell proliferation
same,Proliferation of HaCat keratinocytes,"[2]; NA in pharmacological concentrations, dose dependent",significantly inhibited
same,K10 expression compared to control cells,[3]; 5 mM to 10 mM NA,no effect
same,stimulation of K10 expression,[3]; 20 mM NA,3 fold
same,anti-oxidative enzymes (glutathione peroxidase and catalase),[4],high levels of anti-oxidative enzymes
same,protection to oxidative stress (hydrogen peroxide),[4],high level of protection to oxidative stress
same,growth curve,[5]; 48-168 hours,growth retardation
same,"percentage of mitotic cells, times lower compared to untreated",[5]; 72 h,about 2.5 times
same,apoptotic death in A431 cells,[6],does not induce apoptotic death
same,apoptotic death in HaCat cells (summary statement),[7],does not induce apoptotic death
same,apoptogenic effect,"[7]; 20 mM and 50 mM NA, 72 h",significant apoptogenic effect
same,cells in stage of early apoptosis,[7]; 50 mM NA,9%
same,effected cells with signs of late apoptosis,[7]; 50 mM NA,about 91%
same,necrotic cell death,[7]; all tested NA concentrations (5-50 mM),no tested concentration of NA induced necrotic cell death
same,Proliferation of A431,[8],significantly inhibited
same,Proliferation of KM12,[9],significantly inhibited
same,"differentiation processes: K10, Involucrin, enveloped cornified cell formation markers",[10],promotes the differentiation processes
same,PARP expression (Western blot),[11]; 10 mM or 20 mM NA,express a basal level of undegraded 116 kDa PARP full protein
same,PARP expression (Western blot),"[11]; 50 mM NA, 85 kDa cleavage fragment appears",induced degradation of PARP
same,increase of involucrin expression vs control,[12]; 5 mM NA,about 2 times
same,level of involucrin expression (positive cells),"[12]; 5 mM NA, control 6.0±1.22%",11.2±1.68%
same,frequency of involucrin positive cells,[12]; 10 mM NA,11.0±1.13%
same,frequency of involucrin positive cells,[12]; 20 mM NA,15.1±3.93%
same,frequency of basal and cornified envelope cells,[13]; 5 mM or 10 mM NA,no statistically significant effect
same,cornified envelope cell formation,[13]; 15 mM NA,increased
same,level of basal cells,"[13]; 15 mM NA, untreated 58.6±10.24%",25.6±5.76%
same,"frequency of basal cells, of total cell population",[13]; 20 mM NA,about 15%
same,"frequency of envelope cornified cells, of total cell population","[13]; 20 mM NA, untreated 4.4±2.78%",about 15%
same,"frequency of cells in G0-G1, S and G2-M phases",[14],reduction of the cell number in S and G2-M-phases
"C=C1/C(=C\C=C2/CCC[C@]3(C)[C@@H]([C@H](C)/C=C/[C@@H](O)C4CC4)CC[C@@H]23)C[C@@H](O)C[C@@H]1O [calcipotriol, Calcipotriol]",calcipotriol in the receiver compartment,[15],No calcipotriol was detected
